This note sets out measurements from publication PMC7768756, “BAM1/2 receptor kinase signaling drives CLE peptide-mediated formative cell divisions in Arabidopsis roots” (Proceedings of the National Academy of Sciences of the …, 2020).

Like-named read-outs stand apart in the source and are kept apart here. Non-standard residues stand in square brackets, D forms with d. Residues, ends and D or L forms follow the SMILES beside them. No end group written: not given here. Hyp = O=C(O)[C@@H]1C[C@@H](O)CN1

In assay [1] the target is T1, BAM1 extracellular domain (Arabidopsis thaliana, UniProt O49545).
T1 construct: Drosophila BiP secretion signal peptide (N); StrepII (C, cleaved yes); 10xHis (C, cleaved yes); made in house; host or cells: Trichoplusia ni (strain Tnao38) insect cells, baculovirus (modified pFastBac)
T1 sequence (O49545 20-637): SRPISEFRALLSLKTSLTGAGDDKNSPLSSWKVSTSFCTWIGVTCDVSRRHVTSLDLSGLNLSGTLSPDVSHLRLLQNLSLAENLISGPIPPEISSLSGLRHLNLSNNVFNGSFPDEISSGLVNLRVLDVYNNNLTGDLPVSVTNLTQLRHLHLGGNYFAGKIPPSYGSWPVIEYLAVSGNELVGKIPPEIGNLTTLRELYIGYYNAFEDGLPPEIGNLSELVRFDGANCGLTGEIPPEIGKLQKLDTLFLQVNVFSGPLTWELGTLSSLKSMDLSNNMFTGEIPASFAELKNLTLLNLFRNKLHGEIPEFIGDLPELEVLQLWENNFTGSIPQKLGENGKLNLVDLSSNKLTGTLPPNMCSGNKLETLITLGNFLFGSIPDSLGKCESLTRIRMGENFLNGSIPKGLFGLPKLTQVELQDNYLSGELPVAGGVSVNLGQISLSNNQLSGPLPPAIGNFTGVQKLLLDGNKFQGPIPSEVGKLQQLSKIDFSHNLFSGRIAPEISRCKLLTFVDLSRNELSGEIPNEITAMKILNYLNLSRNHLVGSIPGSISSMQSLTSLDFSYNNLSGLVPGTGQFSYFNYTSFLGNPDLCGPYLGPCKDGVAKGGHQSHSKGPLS
In words: Grating-coupled interferometry (GCI) binding kinetics of CLE peptides versus the BAM1 ectodomain. Conditions: for koff: pH 5, read-out: koff, dissociation rate constant; for kon: pH 5, read-out: kon, association rate constant. The source says: The coding sequence of BAM1 (residues 20 to 637) was synthesized (GeneArt) with codons optimized for expression in Trichoplusia ni and cloned in a modified pFastBac vector (Geneva Biotech), harboring the Drosophila BiP secretion signal peptide and a TEV (tobacco etch virus protease) cleavable C-terminal StrepII, 10× His tag and a noncleavable Avi-tag ([41], [42]). T. ni (strain Tnao38) ([43]) cells were infected with a multiplicity of infection (MOI) of 1 at a density of 2 × 10^6 cells mL^−1 and incubated 26 h at 28 °C and 48 h at 22 °C. The secreted protein was purified from the supernatant by Ni^2+ (HisTrap Excel; GE Healthcare; equilibrated in 50 mM KPi pH 7.6, 250 mM NaCl, 1 mM 2-mercaptoethanol) and StrepII (Strep-Tactin XT Superflow high affinity chromatography: IBA; equilibrated in 20 mM Tris pH 8.0, 250 mM NaCl, 1 mM ethylenediaminetetraacetic acid) affinity chromatography. The tag was cleaved with His-tagged TEV protease at 4 °C overnight and removed by Ni^2+ affinity chromatography. Proteins were then further purified by size-exclusion chromatography on a Superdex 200 increase 10/300 GL column (GE Healthcare), equilibrated in 20 mM sodium citrate pH 5.0, 250 mM NaCl.
BAM1 protein (20 µM) was biotinylated with biotin ligase BirA (2 µM) ([42]) for 1 h at 25 °C, in a volume of 200 µL; 25 mM Tris pH 8, 150 mM NaCl, 5 mM MgCl2, 2 mM 2-mercaptoethanol, 0.15 mM biotin, 2 mM ATP, and followed by size-exclusion chromatography to purify the biotinylated protein.
Grating-coupled interferometry (GCI) experiments were derived by the Creoptix WAVE system (Creoptix). All experiments were performed on 4PCP WAVE chips (quasiplanar polycarboxylate surface; Creoptix). Borate buffer (100 mM sodium borate pH 9.0, 1 M NaCl; Xantec) was used for chip conditioning and streptavidin (Sigma) was immobilized on the chip surface with standard amine coupling; 7 min activation [1:1 mix of 400 mM N-(3-dimethylaminopropyl)-N′-ethylcarbodiimide hydrochloride and 100 mM N-hydroxysuccinimide] (Xantec), followed by injection of streptavidin (30 µg mL^−1) in 10 mM sodium acetate pH 5.0 (Sigma) until the desired density was reached, passivation of the surface (0.5% bovine serum albumin [Roche] in 10 mM sodium acetate pH 5.0) and final quenching with 1 M ethanolamine pH 8.0 for 7 min (Xantec). Then, biotinylated BAM1 (80 µg mL^−1) was captured on the chip surface. All kinetic analyses were performed at 25 °C with a 1:2 dilution series from 100 nM for CLE9 or 10 µM for the other peptides in 20 mM citrate pH 5.0, 250 mM NaCl, 0.01% Tween 20. Blank injections were used for double referencing and a dimethyl sulfoxide (DMSO) calibration curve for bulk correction. Analysis and correction of the obtained data were performed using the Creoptix WAVE control software (correction applied: X and Y offset; DMSO calibration; double referencing). Mass transport binding models with bulk correction were used to fit all experiments.

The next assay concerns CYCD6;1 expression. The assay is described as follows: CYCLIND6;1p::GFP reporter expression in roots after exogenous CLE peptide treatment. Format: in vivo, Arabidopsis. Conditions: Col-0 roots; 0.1 μM CLEp for 48 h from 3 dag, imaged 5 dag. The method, then: Seeds were surface sterilized with 70% ethanol and 0.1% Triton X-100 for 10 min, rinsed three times with 70% ethanol, and plated onto 0.5× Murashige and Skoog (MS) (pH 5.7) (Research Products International) with 8 g/L Phytoagar (Research Products International) and stratified at 4 °C for 2 d. Following stratification, seeds were germinated in a continuous light growth chamber at 22 °C to 24 °C. For peptide-treated plants, sterilized seeds were stratified and germinated on 0.5× MS plates. At 3 d after germination (dag), seedlings were transferred to either 0.5× MS plates or 0.5× MS plates supplemented with 0.1 μM CLEp for 48 h. Roots were imaged 5 dag as described in the figure legends. All synthetic peptides (>90% purity, Biomatik) (SI Appendix, Table S1) were dissolved in sterile dH2O as recommended. For treatment with dexamethasone (Dex; Sigma), seedlings were stratified and germinated on 0.5× MS plates supplemented with 10 μM Dex for 3 d before imaging.
Laser scanning confocal microscopy of roots was performed using either a C-Apochromat 40×/1.20 W Korr objective on a Zeiss laser scanning microscopy (LSM) 710 or an EC Plan-Neofluar 40×/1.30 oil differential interference contrast (DIC) M27 objective on a Zeiss LSM 880. Roots were examined by staining with 10 μM propidium iodide (PI) (Sigma-Aldrich). For images in Figs. 2B and 4 A and C and SI Appendix, Figs. S1D and S2B, seedlings were fixed in 4% paraformaldehyde in phosphate-buffered saline (PBS) for 45 min, rinsed in PBS, and cleared in ClearSee solution ([38]) overnight. Fixed seedlings were incubated in 0.2% Calcofluor white (Sigma-Aldrich) for 30 min and transferred to fresh ClearSee solution 2 to 24 h before imaging. Laser line excitations and emissions are as follows: Calcofluor white (405 nm; 410 to 551 nm), GFP (488 nm; 492 to 551 nm), YFP (514 nm; 519 to 564 nm), mCherry (561 nm; 566 to 606 nm), and PI (561 nm; 566 to 682 nm). Histological sectioning of Col-0 and bam1/2/3 roots 6 dag were prepared as previously described ([39]).

The target of assay [2] is T2, BAM1 extracellular domain (BARELY ANY MERISTEM1 receptor kinase, residues 20 to 637) (Arabidopsis, UniProt O49545 20-637, biotin (by biotin ligase BirA)).
T2 construct: synthetic gene, codon-optimised for Trichoplusia ni; Expressed behind the Drosophila BiP secretion signal peptide in a modified pFastBac vector; the StrepII and 10x His tags were removed with TEV protease, the Avi-tag is not cleavable and was used to capture the protein on streptavidin; also called BAM1 ectodomain; biotinylated BAM1; source: Trichoplusia ni (strain Tnao38) cells, secreted, …
T2 sequence (looked up): T1 sequence (O49545 20-637)
The assay is described as follows: grating-coupled interferometry (GCI); biotinylated BAM1 captured on streptavidin on a 4PCP WAVE chip (Creoptix WAVE); peptides as analyte, 1:2 dilution series from 10 µM; 25 °C; 20 mM citrate pH 5.0, 250 mM NaCl, 0.01% Tween 20; one-to-one binding model with mass transport. The conditions noted are these: both partners purified.

Assay [3] has as its target T3, BAM1 extracellular domain (BARELY ANY MERISTEM1 receptor kinase, residues 20 to 637) (Arabidopsis, UniProt O49545 20-637, biotin (by biotin ligase BirA)).
T3 chain: T1 sequence (O49545 20-637)

As to `CC(C)C[C@H](NC(=O)[C@@H](N)CCCNC(=N)N)C(=O)N[C@H](C(=O)N1C[C@H](O)C[C@H]1C(=O)N[C@@H](CO)C(=O)NCC(=O)N1C[C@H](O)C[C@H]1C(=O)N[C@@H](CC(N)=O)C(=O)N1CCC[C@H]1C(=O)N[C@@H](CC(C)C)C(=O)N[C@@H](Cc1c[nH]cn1)C(=O)N[C@@H](CC(N)=O)C(=O)O)C(C)C` [CLE9, reference compound] (H-RLV[Hyp]SG[Hyp]NPLHN-OH; N-terminus and C-terminus assumed), in assay [1], the dissociation rate constant (koff) came to 0.024 s⁻¹ and the kon was found to be 3.76e+07 M⁻¹ s⁻¹.

On to “RLSPGGPDPQHH [CLE2p, synthesized root expressed CLE dodecapeptide, locus At4g18510]”, for which, in the assay with CYCD6;1 expression, the “Upregulation of CYCD6 observed? (CYCLIND6;1p::GFP response)” value (from here on “Upregulation of CYCD6 observed?”) was “No”.

For “RLSPGGPDPRHH [CLE1p, synthesized root expressed CLE dodecapeptide, locus At1g73165]”, the “Upregulation of CYCD6 observed?” value in the assay with CYCD6;1 expression is “No”.

Take RLVHTGPNPLHN [CLE16p]: in assay [1], the koff amounted to 1.05 s⁻¹ and the kon came out at 1.51e+08 M⁻¹ s⁻¹.

On to RLVPSGPNPLHH [CLE13p], for which, in assay [1], the off-rate constant (koff) was found to be 0.603 s⁻¹ and the kon was 5.88e+07 M⁻¹ s⁻¹.

Turning to “RRVPSGPNPLHH [CLE12p, synthesized root expressed CLE dodecapeptide, locus At1g68795]”, in the assay on CYCD6;1 expression, the “Upregulation of CYCD6 observed?” value is “Yes”.

Consider RTVPSGPDPLHH [CLV3, reference compound], for which, in assay [1], the off-rate (koff) was 0.549 s⁻¹ and the kon worked out at 38200 M⁻¹ s⁻¹.

B1: CLE13 dodecapeptide (CLE13p) (peptide, UniProt Q6NMF0 96-107, looked up)
peptide: RLVPSGPNPLHH
modifications: ends and bridges not checked
notes: CLE13p, the active dodecapeptide released from the CLE13 propeptide, Arabidopsis; source: synthetic peptide (>90% purity, Biomatik)
In assay [2], B1 showed a Kd of 10 nM.

B2: CLE16 dodecapeptide (CLE16p) (peptide, UniProt Q8S8M2 92-103, looked up)
peptide: RLVHTGPNPLHN
modifications: ends and bridges not checked
notes: CLE16p, the active dodecapeptide released from the CLE16 propeptide, Arabidopsis; source: synthetic peptide (>90% purity, Biomatik)
As for B2, the Kd in assay [2] was determined as 6.9 nM.

For RLVPSGPNPLHN [CLE9], in assay [3], binding was characterised by a dissociation constant (Kd) of 0.6 nM.

RTVPSGPDPLHH [CLV3] yielded a Kd in assay [3] of 14000 nM.
